Assay results: paper PMC8152971, “Valeriana rigida Ruiz & Pav. Root Extract: A New Source of Caffeoylquinic Acids with Antioxidant and Aldose Reductase Inhibitory Activities” (Foods, 2021)
Marks after values point to notes of the source that are not given here.

Key:
[1] = Hypochlorous acid (HOCl) scavenging assay; conditions: for IC50: linear regression
Protocol: The HOCl scavenging assay was adapted from a previous study using 1,8-diaminonaphthalene as a fluorescence probe for hypochlorite. […] Next, the fluorescence intensity (λex = 360 ± 20 nm, λem = 460 ± 20 nm) was immediately measured using a microplate fluorescence reader (FLx800; Bio-Tek, Winooski, VT, USA). Trolox (final concentration 25–100 µg/mL) was used as a reference antioxidant.

[2] = ABTS radical scavenging assay; conditions: Trolox equivalent antioxidant capacity, mean ± SD, n ≥ 3
Protocol: The experiment was conducted as previously described. In brief, 3.5 mM of potassium persulfate aqueous solution was used to prepare 0.2 mM of ABTS diammonium salt. The solution was diluted 10-fold using distilled water and allowed to produce ABTS radicals (ABTS^+) by keeping the solution in the dark for 14 h at room temperature. […] Equation (1) was used to calculate the ABTS^+ scavenging activity (%), where Acontrol is the absorbance of ABTS^+ solution free of samples, Asample is the absorbance of ABTS^+ solution incubated with a sample, Ablank1 is the absorbance of the test sample free of ABTS^+ solution, and Ablank2 is the absorbance of the diluted potassium persulfate solution.

[3] = Oxygen radical absorbance capacity (ORAC) assay; conditions: Trolox equivalent antioxidant capacity, mean ± SD, n ≥ 3
Protocol: The oxygen radical absorbance capacity (ORAC) assay was performed as previously described. Briefly, 0. […] Next, 60 µL of AAPH (40 mM) was added to generate peroxyl radicals to initiate the reaction.

[4] = DPPH radical scavenging assay; conditions: Trolox equivalent antioxidant capacity, mean ± SD, n ≥ 3
Protocol: The experiment was carried out as previously described. […] Thereafter, the absorbance was measured using a microplate reader (EL800, Bio-Tek Instruments, Winooski, VT, USA) at 570 nm.

[5] = molecular target: T1, rat lens AR homogenate (aldose reductase) (Rattus norvegicus, UniProt P07943); assay: AR inhibition assay; assay type: biochemical, Sprague–Dawley rats; conditions: for inhibition at 0.098 µM / inhibition at 0.195 µM / inhibition at 0.391 µM: read-out: AR inhibitory Activity Inhibition (%)
T1 construct: the lenses were removed from the eyes, ground in a mortar; from tissue; host or cells: lens of Sprague–Dawley rats
Protocol: The eyes of 10-week Sprague–Dawley rats (250–280 g) were removed and frozen at −70 °C before use. Thereafter, the lenses were removed from the eyes, ground in a mortar (precooled at −70 °C), and extracted using 0.1 M PBS of pH 6.2 (around 0.5 mL of buffer per two frozen rat lenses).
The AR inhibitory activities of the extract and the separated compounds were determined as described previously. […] Next, the reaction was initiated by adding 20 µL of the substrate (DL-glyceraldehyde dimmer, 25 mM in 0.1 M PBS of pH 7.0), and the values were further measured for 6 min at 340 nm (OD340) using an Epoch microplate spectrophotometer (BioTek Instruments, Winooski, VT, USA). […] The DMSO used for sample preparation was less than 0.4% (v/v) in the reaction system.

[6] = Partition coefficient (K upper/lower) in biphasic CCC solvent systems; assay type: physicochemical
Protocol: The solvent system was screened via HPLC and evaluated according to the partition coefficient (K value) of the target compounds on the principle introduced by Ito [32]. Briefly, four solvent systems comprising EtOAc, n-BuOH, […] solution to 29 mM, and then the corresponding K values of the target compounds under acidic (Kacid) or basic (Kbase) conditions were determined, as previously described: each acidified or basified solvent system was partitioned to upper layer and lower layer. Thereafter, the extract (about 1–2 mg) was prepared in a 1.5 mL tube and dissolved by adding equal volumes (each 500 µL) of the upper layer and lower layers, which were mixed by a vortex mixer and centrifuged for about 20 s using a C1301 Mini Centrifuge (Labnet International, South Korea). Next, the upper and lower phase sample solutions were respectively pipetted (each 200 µL) into a new 1.5 mL-tube and evaporated by nitrogen gas. Each sample residue was redissolved using 200 µL of MeOH and subjected to HPLC analysis with an injection volume of 20 µL. The K value was calculated as K = Aupper/Alower, where Aupper and Alower are the HPLC peak areas of the target component in the upper and lower phases, respectively.

[7] = EtOAc/H2O, 1:1, 208 mM formic acid
[8] = EtOAc/n-BuOH/H2O, 2:3:5, 30 mM ammonia
[9] = EtOAc/n-BuOH/H2O, 2:3:5, 208 mM formic acid
[10] = EtOAc/n-BuOH/H2O, 3:2:5, 30 mM ammonia
[11] = EtOAc/n-BuOH/H2O, 3:2:5, 208 mM formic acid
[12] = EtOAc/n-BuOH/H2O, 4:1:5, 30 mM ammonia
[13] = EtOAc/n-BuOH/H2O, 4:1:5, 208 mM formic acid

SMILES | HOCl Scavenging Activity Inhibition (%) ([1]; 3.125 µM) | HOCl Scavenging Activity Inhibition (%) ([1]; 6.25 µM) | HOCl Scavenging Activity Inhibition (%) ([1]; 12.5 µM) | IC50 [1] | TE, ABTS [2] | TE, ORAC [3] | TE, DPPH [4] | inhibition at 0.098 µM [5] | inhibition at 0.195 µM [5] | inhibition at 0.391 µM [5] | IC50 ([5]; rat lens AR, read-out: AR inhibitory Activity IC50) | K(upper/lower) Value ([6]; EtOAc/H2O, 1:1, 30 mM ammonia) | K(upper/lower) Value [6, 7] | K(upper/lower) Value [6, 8] | K(upper/lower) Value [6, 9] | K(upper/lower) Value [6, 10] | K(upper/lower) Value [6, 11] | K(upper/lower) Value [6, 12] | K(upper/lower) Value [6, 13]
O=C(/C=C/c1ccc(O)c(O)c1)O[C@H]1[C@H](O)C[C@](O)(C(=O)O)C[C@H]1OC(=O)/C=C/c1ccc(O)c(O)c1 [3,4-diCQA (4), 3,4-di-O-caffeoylquinic acid] | 46.68 ± 2.87% | 50.28 ± 0.19% | 59.15 ± 1.19% | 5.78 µM | 1.06 ± 0.06 ^c µmol Trolox Equivalents Per µmol Compound | 3.26 ± 0.10 ^a µmol Trolox Equivalents Per µmol Compound | 1.09 ± 0.09 ^b µmol Trolox Equivalents Per µmol Compound | 18.9 ± 2.43% | 50.4 ± 3.34% | 68.67 ± 0.68% | 0.22 µM | 0.02 | 3.49 | 0.04 | 20.24 | 0.03 | 16.14 | 0.02 | 4.86
O=C(/C=C/c1ccc(O)c(O)c1)O[C@@H]1C[C@](O)(C(=O)O)C[C@@H](OC(=O)/C=C/c2ccc(O)c(O)c2)[C@H]1O [3,5-diCQA (5), 3,5-di-O-caffeoylquinic acid] | 49.56 ± 1.23% | 56.13 ± 3.01% | 62.86 ± 1.23% | 2.93 µM | 0.89 ± 0.05 ^d µmol Trolox Equivalents Per µmol Compound | 2.13 ± 0.07 ^b µmol Trolox Equivalents Per µmol Compound | 0.86 ± 0.08 ^c µmol Trolox Equivalents Per µmol Compound | 35.4 ± 1.33% | 62.3 ± 1.33% | 75.6 ± 1.33% | – | 0.01 | 7.71 | 0.12 | 38.56 | 0.01 | 35.91 | 0.01 | 14.23
